Results on one substance are retold here after patent US10259852B2, “Conjugate comprising P21 protein for the treatment of cancer” (ANASTASIS BIOTEC LIMITED, priority 2005, dated 2019).

The subject of one assay is HeLa. As to the kind of experiment: Cell translocation experiment. To be noted: incubated 10 and 60 min, various dilutions, 37° C. Format: cell-based, human. The procedure: (§1) The production of the fusion protein allowed a cell translocation experiment to be performed, to test the ability of the antennapedia-containing fusion protein to translocate across biological membranes. Two cell lines were used in this experiment, ASPC1 and HeLa (ASPC1—human pancreatic adenocarcinoma, HeLa—human cervical adenocarcinoma). The protein was incubated for 10 and 60 min on cells in various dilutions at 37° C. Translocation of the fusion protein was evident in both cell lines, even after only ten minutes of incubation.

A further assay relates to ASPC1. Nature of the assay: Cell translocation experiment. Type of assay: cell-based, human. The following applies: incubated 10 and 60 min, various dilutions, 37° C. The procedure:
as §1

As for “P21 protein: P21 tumour suppressor protein expressed alone, without translocation factor; human P21 is SEQ ID NO:1”, the Translocation across cells entry in the assay with HeLa and with ASPC1 was “did not appear to translocate” in each case.
